Assay results taken from patent publication US6803226B2, “Method of forming an artificial Shiro of Matsutake” (The University of Tokyo, priority 2001, dated 2004).

System: Matsutake hyphae (strain Tm 89)
Assay: Growth of Matsutake hyphae in soil containing Tween 80 additive, determined by ergosterol amount
Format: cell-based, Tricholoma Matsutake
Conditions: Tween 80 additive 1, 2 or 5 wt % vs 0 wt %, 20 wt % of soil, one month incubation at 25±1° C. in the dark, FIG. 1
Method: The culture substrate containing an active principle prepared as described above is put into a sterile container (a Petri-dish, etc.). A hypha solution containing Matsutake hyphae is inoculated into the culture substrate in the sterile container such that the hypha solution is spread throughout the culture substrate. Culture of Matsutake hyphae can be performed at 25±1° C. in the dark. After 1 to 3 month's culture of Matsutake hyphae, a piece of the grown hyphae (i.e., a Shiro) are taken as a sample, and the growth amount of the hyphae is determined based on the amount of ergosterol. Ergosterol can be quantified as follows. After a sample of a Shiro is freeze-dried (EYELA, FDU-830), 1 g of the sample is taken and extracted with 2.5 mL of ethanol (99.5%). The obtained extract is loaded into HPLC (high-performance liquid chromatography; HITACHI, Column L-7300; UV Detector L-7400; Autosampler L-7200; Pump L-7100; Integrator D-7500) to quantify the amount of ergosterol in the extract. With respect to the details of the quantification procedure, reference should be made to Martin et al. (1990) Mycol. Res. 94: 1059-1064. About one week after the initiation of the culture, it is observed that the hyphae are grown on the surface of the culture substrate. About 4 weeks after the initiation of the culture, increase in the growth amount of the hyphae is found. […]

CCCCCCCC/C=C\CCCCCCCC(=O)OCCOCC(OCCO)C1OCC(OCCO)C1OCCO (stereo not shown) [Tween 80, Polyoxyethylene (20) Sorbitan Monooleate]
growth of Matsutake hyphae (amount of ergosterol): significantly enhanced
